# Laboratory results taken from US20110015226A1, “Treatment of Energy Utilization Disease” (SUMMIT CORPORATION PLC, priority 2008, published 2011).
# Where two headings read alike, the source gives them in different places.
# Assays:
# [1] = molecular target: T1, rat intestinal cellobiase (Rattus norvegicus, UniProt Q02401); assay: Rat intestinal glycosidases: cellobiase; assay type: biochemical; conditions: rat intestinal brush border membranes
# T1 construct: Enzyme activities were prepared from brush border membranes of rat small intestine; from tissue; host or cells: rat small intestine brush border membranes
# Protocol: (§1) Enzyme activities were prepared from brush border membranes of rat small intestine using disaccharides as substrates as described by Yasuda et al., 2002.
# ob/ob mice = assay: Oral glucose tolerance test after 7 days dosing in ob/ob mice; assay type: in vivo
# Protocol: The study started with 42 male ob/ob mice, 10 weeks of age. The mice were fed a normal chow diet during the whole study. After 1 week of acclimatization, mice were matched on basis of body weight, plasma glucose and insulin (after 4 h-fasting) and divided in 3 groups of 10 animals (t=0 days). For the next 6 days, mice received vehicle (control group 1) or 5 mg/kg/day (group 2) or 50 mg/kg/day (group 3) of the compound of formula (G2) (test compound) around 12.00 h by gavage (5 ml/kg mouse). On the 7th day, mice were fasted at 8.00 h and received the last gavage (vehicle for group 1 or 5 mg/kg/day, test compound for group 2 or 50 mg/kg/day test compound for group 3) at 12.00 h. At 13.00 h the mice subsequently received a glucose bolus (2 g/kg mouse, 5 ml/kg mouse) by gavage as start of the oral glucose tolerance test (OGTT). Measurement of blood glucose and plasma collection was at t=0 (just before gavage of glucose) and at t=5, 15, 30, 45, 60 and 120 min after glucose bolus. After the OGTT, mice were sacrificed with CO2 and additional blood was collected in heparin-coated tubes via heart puncture (>100 μl plasma was obtained) and heparin-plasma samples were analysed.
# On day 0 mice were randomized on body weight and 4 h fasted plasma glucose and insulin levels (table 3.1.a). Twelve out of 42 mice were excluded, to create more homogenous groups with respect to body weight, plasma glucose and insulin.
# rat intestinal maltase [2] = assay: Rat intestinal glycosidases: maltase; assay type: biochemical; conditions: rat intestinal brush border membranes
# Protocol: as §1
# rat intestinal lactase = molecular target: T2, rat intestinal lactase (Rattus norvegicus, UniProt Q02401); assay: Rat intestinal glycosidases: lactase; assay type: biochemical; conditions: rat intestinal brush border membranes
# T2 construct: Enzyme activities were prepared from brush border membranes of rat small intestine; from tissue; host or cells: rat small intestine brush border membranes
# Protocol: as §1
# ddy mice [3] = assay: Serum insulin levels in ddy mice with or without glucose load; assay type: in vivo; conditions: 30 minutes
# Protocol: 7 week old ddy mice (weight 30-31 g) were divided into 4 groups (groups 1 to 4). Each group had 3-4 mice. All test mouse were fasted for 16 hours before being given the test compounds.
# Group 1: Control. un-treated mice (without glucose and G2). Group 2: Oral administration of glucose alone. Group 3: Oral administration of G2 alone. Group 4: Oral administration of G2 with glucose.
# Serum insulin levels were measured after 30 minutes (see FIG. 2).
# FIG. 3 Effects of G2 (BR1) (100 mg/kg body weight) on serum insulin levels.
# Serum insulin concentrations of male ddy mouse after 30 minutes later an oral load with or without D-glucose (2.5 g/kg body weight). Each value represents the mean±SEM (n=3-4). * P<0.05, ** P<0.01.
# glucuronidase = glucuronidase (Homo sapiens, UniProt P08236); conditions: Booth et al. (2007) and references therein; cited from earlier work
# α-glucosidases = assay: Inhibition of α-glucosidases (summary statement); assay type: biochemical; conditions: only just reaching 50% inhibition at nearly mM concentration
# Text: The results tabulated below were obtained using commercially available glycosidases and p-nitrophenyl-substrates using standard methods described for example by Watson et al (1997) Phytochemistry 46 255-259. All enzymes and substrates were bought from Sigma. Enzyme and substrate solutions were made using sodium phosphate buffers at the pH optima values. The enzymes used were α-D-glucosidase Saccharomyces cerevisiae, Bacillus stearothermophilus, Oryzae sativa), β-D-glucosidase (Almond), α-D-mannosidase (Jack bean), α-D-galactosidase (Green coffee beans), β-D-galactosidase (Bovine liver), α-L-fucosidase (Bovine kidney), N-acetyl-β-D-glucosaminidase (Bovine kidney, Jack bean, Aspergillus oryzae), Naringinase (Penicillium decumbens) and amyloglucosidase (Aspergillus niger). All enzymes were used with the appropriate p-nitrophenyl substrates (5 mM). Amyloglucosidase activity was measured using amylopectin (0.1%) (Merck) mixed with sodium phosphate buffer, pH 4.5 in a glass bottle, and healed in a boiling water bath for 20 minutes to dissolve with released glucose measured using ‘Trinder’ glucose detection solution (Sigma).
# ddy mice [4] = assay: Blood glucose levels after maltose loading in ddy mice; assay type: in vivo
# Protocol: 7 weeks old ddy mice (weight 30-31 g) were divided into 4 groups (from group 1 to 4). Each group had 5 mouse. All test mouse were fasted for 16 hours for this experiment.
# The aim of this experiment was to show if G2 (here coded as BR1) could suppress a hyperglycemia after a meal. Thus, maltose was chosen as the loading sugar as used for Bayer's glucosidase inhibitor Glucobay. Either maltose (2.5 g/kg) or Surose (2.5 g/kg) or starch (1.0 g/kg) can be used but maltose is most popular.
# Group 1: Control. Maltose-loading only (without G2 condition). Group 2: oral administration of G2 with maltose (same time). Group 3: intraperitoneal injection of G2 and oral administration of maltose (same time). Group 4: oral administration of G2 30 minutes before maltose-loading. (Glucobay is taken 30 minutes before meals).
# rat intestinal maltase [5] = conditions: from Yasuda et al., 2002; cited from earlier work
# digestive glucosidases = conditions: Watson et al., 2001; cited from earlier work
# [6] = 5 mg/kg/day or 50 mg/kg/day by gavage, compared to control (vehicle) group
# T2 sequence (Q02401 868-1928): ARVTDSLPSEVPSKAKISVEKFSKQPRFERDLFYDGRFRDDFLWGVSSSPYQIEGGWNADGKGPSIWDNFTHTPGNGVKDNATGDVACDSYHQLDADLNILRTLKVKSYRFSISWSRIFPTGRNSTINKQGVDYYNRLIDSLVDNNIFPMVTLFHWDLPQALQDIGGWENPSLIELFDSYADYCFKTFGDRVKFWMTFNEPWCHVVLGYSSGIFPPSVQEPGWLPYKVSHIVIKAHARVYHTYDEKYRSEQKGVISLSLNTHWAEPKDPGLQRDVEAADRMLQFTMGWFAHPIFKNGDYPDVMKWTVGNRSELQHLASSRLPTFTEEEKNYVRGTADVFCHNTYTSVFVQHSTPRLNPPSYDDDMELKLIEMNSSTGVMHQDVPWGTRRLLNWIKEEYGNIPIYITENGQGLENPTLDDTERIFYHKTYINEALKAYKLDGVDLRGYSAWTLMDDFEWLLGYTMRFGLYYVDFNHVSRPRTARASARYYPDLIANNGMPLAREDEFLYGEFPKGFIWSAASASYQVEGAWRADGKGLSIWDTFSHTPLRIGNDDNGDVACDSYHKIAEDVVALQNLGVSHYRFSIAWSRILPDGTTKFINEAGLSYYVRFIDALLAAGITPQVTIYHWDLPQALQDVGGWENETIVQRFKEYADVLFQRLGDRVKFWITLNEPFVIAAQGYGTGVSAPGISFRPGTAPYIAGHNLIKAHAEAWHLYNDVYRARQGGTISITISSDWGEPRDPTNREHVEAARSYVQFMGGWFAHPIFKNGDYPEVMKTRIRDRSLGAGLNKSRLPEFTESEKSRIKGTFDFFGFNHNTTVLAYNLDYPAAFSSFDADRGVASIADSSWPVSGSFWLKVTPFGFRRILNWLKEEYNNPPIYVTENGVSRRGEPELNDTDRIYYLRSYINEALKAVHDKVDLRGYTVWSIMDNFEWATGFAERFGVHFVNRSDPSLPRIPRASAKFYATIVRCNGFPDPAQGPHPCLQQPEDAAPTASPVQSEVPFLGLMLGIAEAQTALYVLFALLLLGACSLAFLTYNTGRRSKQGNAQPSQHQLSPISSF
# T1 sequence (Q02401 868-1928): as above
# Sequence of glucuronidase (P08236 23-651): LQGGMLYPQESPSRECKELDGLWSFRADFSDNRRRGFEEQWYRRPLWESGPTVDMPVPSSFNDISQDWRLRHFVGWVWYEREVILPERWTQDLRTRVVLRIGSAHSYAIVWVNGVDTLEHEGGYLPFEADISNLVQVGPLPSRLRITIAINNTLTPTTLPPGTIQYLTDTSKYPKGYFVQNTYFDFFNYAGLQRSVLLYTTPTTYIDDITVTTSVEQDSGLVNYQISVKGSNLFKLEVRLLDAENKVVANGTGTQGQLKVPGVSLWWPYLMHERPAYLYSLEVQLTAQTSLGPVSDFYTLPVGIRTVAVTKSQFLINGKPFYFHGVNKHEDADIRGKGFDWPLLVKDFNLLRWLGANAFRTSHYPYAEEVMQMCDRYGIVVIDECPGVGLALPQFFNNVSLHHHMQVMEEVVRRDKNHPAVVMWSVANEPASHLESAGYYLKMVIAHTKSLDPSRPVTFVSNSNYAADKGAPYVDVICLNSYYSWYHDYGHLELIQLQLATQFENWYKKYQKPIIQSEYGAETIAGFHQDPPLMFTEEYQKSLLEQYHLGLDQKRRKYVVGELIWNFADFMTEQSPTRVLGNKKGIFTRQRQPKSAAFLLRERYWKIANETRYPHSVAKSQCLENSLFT
Compound,IC50 [1],plasma insulin concentrations 120 min after glucose bolus (ob/ob mice; 5 mg/kg and 50 mg/kg groups vs control),body weight (ob/ob mice; [6]),food intake (ob/ob mice; [6]),"plasma insulin at 15, 30, 45 and 60 min (ob/ob mice; after glucose bolus 2 g/kg, 5 and 50 mg/kg/day groups vs control)","plasma insulin levels at 0 min (ob/ob mice; just before oral glucose load, 5 and 50 mg/kg/day groups vs control, reduction not significant)",IC50 (rat intestinal maltase [2]),IC50 (rat intestinal lactase),"serum insulin level, G2 with glucose (ddy mice [3]; 100 mg/kg body weight oral with D-glucose 2.5 g/kg, vs glucose alone)","serum insulin level, G2 alone (ddy mice [3]; 100 mg/kg body weight oral, without glucose, vs un-treated)",inhibition of glucuronidase (glucuronidase),inhibition of α-glucosidases (α-glucosidases),absorption into the blood (ddy mice [4]; inferred from p.o. and i.p. curves being almost same),"blood glucose level (hyperglycemia) after maltose loading (ddy mice [4]; p.o. with maltose, i.p. with maltose, or p.o. 30 minutes before maltose (2.5 g/kg))",IC50 (rat intestinal maltase [5]),"Ki values, digestive glucosidases (digestive glucosidases)"
"O=C(O)[C@H]1NC[C@H](O)[C@@H](O)[C@@H]1O [Compound G2, 2S,3R,4R,5S-trihydroxypiperidine-2-carboxylic acid]",> 1 mM,significantly increased,not significantly changed,not significantly changed,No significant changes,reduced somewhat,> 1 mM,> 1 mM,much effective than glucose alone,did not affect the insulin level,weak inhibitor,very weak inhibitor,absorbed into the blood very quickly,suppress hyperglycemia,–,–
"OC[C@H]1NC[C@H](O)[C@@H](O)[C@@H]1O [DNJ, 1-deoxynojirimycin, reference compound]",–,–,–,–,–,–,–,–,–,–,–,–,–,–,0.00036 mM,low or sub-μM range
